# Test: Treatment of young bulls with GPP: live weight gain and food intake over 7 months
# Format: in vivo
# Conditions: batch 5 (SRIF, MTP treated) versus batch 3 (SRIF, MDP treated); low, without any statistical significance
# Protocol: They were injected four times with 100 µg of GPP or a mixture of equivalent amounts of muramyl di-or triptide and SRIF. Samples were solubilized in physiological medium supplemented with 40 % WN polyethyleneglycol 6000. Intramuscular injections in the neck of animals were performed with 3 ml of the solution at days 0, 10, 30 and 60 of the 7 months period. During the seventh months treatment period the animals received a concentrate ad libitum. Each month, the animals were weighed and blood samples were taken for further analyses. The results concerning the parameters studied in this zootechnical experiment were summarized in the following.
# Variance analysis of the body live weight gain has been performed on 27 animals alive on September 27, 1984 (16 controls and 11 treated animals). At that time, the difference of life weight gain between the 16 control animals and the 11 treated animals was 31.3 kg per animal, i. e. 11 % over controls.
substance,measurement,value
"SRIF, MTP: Coupling of a muramyl tripeptide analog (N-acetyl muramyl-L-Ala-D-isoglutamyl-L-lysine OMe) with somatostatine (SRIF)",deviation between the life gain of treated animals of batch 5 and batch 3,5.7 kg

# From patent EP0157753B1, “New somatostatin compounds, process for their synthesis, preparation for veterinary use containing said compound and process for the treatment of animals” (TECHLAND, Société Anonyme, priority 1984, dated 1987)
